The subject of one data set is MDA-MB-231. The experiment in a line: Cytotoxic activity against MDA-MB-231 breast cancer cells.
In data set [1] the target is T1, PTP1B (human, recombinant) (Homo sapiens, UniProt P18031).
T1 construct: purchased BIOMOL International LP (USA)
T1 sequence (P18031 1-435): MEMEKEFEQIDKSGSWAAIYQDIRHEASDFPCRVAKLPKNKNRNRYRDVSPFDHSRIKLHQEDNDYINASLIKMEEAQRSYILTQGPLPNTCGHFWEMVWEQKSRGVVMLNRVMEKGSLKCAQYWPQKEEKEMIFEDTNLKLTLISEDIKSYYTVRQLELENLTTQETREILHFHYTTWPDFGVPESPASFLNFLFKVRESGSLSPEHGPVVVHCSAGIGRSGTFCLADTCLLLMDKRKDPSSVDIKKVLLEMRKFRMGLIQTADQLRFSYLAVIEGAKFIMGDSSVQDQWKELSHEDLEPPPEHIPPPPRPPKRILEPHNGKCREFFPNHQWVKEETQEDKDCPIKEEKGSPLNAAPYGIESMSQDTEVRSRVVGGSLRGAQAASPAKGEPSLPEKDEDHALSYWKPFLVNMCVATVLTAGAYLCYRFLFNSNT
In words: PTP1B enzyme assay (p-NPP substrate). To be noted: for IC50: mean ± SD of three replicates, 4 mM p-NPP, 37 °C, 30 min; for PTP1B inhibition mode (Lineweaver-Burk plot): p-NPP 1, 2, 4, 8 mM, compound 1, 2, 5, 10 μM. It counts as biochemical. The procedure:
PTP1B (human, recombinant) was purchased from BIOMOL International LP (USA) and the enzyme activity was measured using p-nitrophenyl phosphate (p-NPP) (N1891, Sigma-Aldrich, St. Louis, MO, USA) as a substrate. In general, the assay was performed in 96-well plate containing 4 mM p-NPP and PTP1B (0.05–0.1 μg) in enzyme buffer (50 mM citrate (pH 6.0), 0.1 M NaCl, 1 mM dithiothreitol (DTT), and 1 mM EDTA) with or without test compounds. The assay was also carried out in the absence of PTP1B enzyme to exclude the effect of test compounds on the measurement absorbance. Following incubation at 37 °C for 30 min, the reaction was terminated with 10 M NaOH solution. The amount of produced p-nitrophenol was estimated by measuring the absorbance at 405 nm using an absorbance microplate reader (VersaMax™, Randor, PA, USA). For the enzyme kinetic determination, Lineweaver-Burk was used to determine the inhibition type of PTP1B. On the basis of Lineweaver-Burk double reciprocal plots, the PTP1B inhibition mode was obtained at various concentrations of p-NPP substrate (1, 2, 4, and 8 mM) without or with different test compound concentrations (1, 2, 5, and 10 μM).

The subject of data set [2] is MCF7, MDA-MB-231 and MCF7/TAMR breast cancer cell lines.
The test system of another data set is MCF7. The experiment in a line: Cytotoxic activity against MCF7 breast cancer cells.
The next data set relates to MCF7/TAMR. The experiment in a line: Cytotoxic activity against tamoxifen-resistant MCF7 cells.
The next data set concerns MCF-7 cells. In words: Flow cytometric analysis of cell apoptosis (ApopNexin FITC / PI). It is filed as cell-based. The procedure:
An ApopNexin™ FITC kit (Millipore) was used for the flow cytometric analysis. After MCF-7 cells were seeded on 6-well plates and incubated for 24 h, the cells were treated with test compounds and incubated for 12 h. The detached cells were collected and resuspended to wash the cells twice with PBS. The cells were suspended in cold binding buffer (10 mM Hepes/NaOH pH 7.4, 140 mM NaCl, 2.5 mM CaCl2) at a concentration of 10^6 cells/mL. Annexin conjugate ApopNexin™ FITC and propidium iodide (PI) were added to the cell suspension, which was incubated for 15 min in the dark. Then, the double-stained cells were immediately analyzed using a flow cytometer (BD bioscience, San Jose, CA, USA).
On the technique in general: Flow cytometry measures light scatter and fluorescence of single cells or particles in a stream.

[3] abbreviates: Homo sapiens, MDA-MB-231, read-out: Cytotoxic Activities (IC50, μM) MDA-MB-231.
Where [4] appears, read: Homo sapiens, MCF7, read-out: Cytotoxic Activities (IC50, μM) MCF7.
The mark [5] stands for this setting: Homo sapiens, MCF7, read-out: Cytotoxic Activities (IC50, μM) MCF7/TAMR.

Like-named read-outs stand apart in the source and are kept apart here.

Take `CC1=C(C)C2=CC(=O)c3c(O)c4c(c(O)c3[C@@]2(C)CC1)O[C@@H](C)C4` [Compound 3, uncinatone]: the IC50 in the data set on MDA-MB-231 (setting [3]) is 5.14 ± 1.55 µM; in data set [1], 5.41 ± 0.68 µM; in the data set with MCF7 (setting [4]) it was 6.02 ± 2.32 µM; with MCF7/TAMR (setting [5]) it was 7.73 ± 1.02 µM. Besides, in data set [1], the “PTP1B inhibition mode (Lineweaver-Burk plot)” value is on record as “noncompetitive”. Moreover, the “cytotoxic activities against breast cancer lines, IC50 values ranging over the cell lines” value in data set [2] was 0.84 ± 0.17 to 13.42 ± 1.26.
`CC1(C)CC[C@]2(C(=O)O)CC[C@]3(C)C(=CCC4[C@@]5(C)C[C@@H](O)[C@@H](O)[C@](C)(CO)C5CC[C@]43C)C2C1` (stereo partly drawn) [Compound 11, 2α,3α,23-trihydroxyoleane-12-en-28-oic acid]: the IC50 in data set [1] is 7.78 ± 1.43 µM; in the data set with MCF7 (setting [4]), over 40 µM.
As for “4-hydroxy tamoxifen [4-OH tamoxifen, reference compound]”, the IC50 is 3.1 ± 0.31 µM in the data set with MDA-MB-231 (read-out: Cytotoxic Activities (IC50, μM) MDA-MB-231, MDA-MB-231, mean ± SD of three replicates); 2.11 ± 0.39 µM in the data set with MCF7 (read-out: Cytotoxic Activities (IC50, μM) MCF7, MCF7, mean ± SD of three replicates); 13.6 ± 1.25 µM in the data set on MCF7/TAMR (read-out: Cytotoxic Activities (IC50, μM) MCF7/TAMR, MCF7/TAMR, mean ± SD of three replicates).
Take `CC/C(=C(\c1ccccc1)c1ccc(OCCN(C)C)cc1)c1ccccc1` [Tamoxifen, tamoxifen, reference compound]: the IC50 in the data set with MDA-MB-231 (setting [3]) was found to be 10.1 ± 1.51 µM; in the data set on MCF7 (setting [4]), 8.01 ± 1.81 µM; in the data set with MCF7/TAMR (setting [5]) it was 25.4 ± 1.79 µM.
For the compound `CC1(C)CC[C@]2(C(=O)O)CC[C@]3(C)C(=CCC4[C@@]5(C)CCC(O[C@@H]6OC[C@H](O[C@@H]7O[C@H](CO)[C@@H](O)[C@H](O)[C@H]7O)[C@H](O)[C@H]6O)C(C)(C)C5CC[C@]43C)C2C1` (stereo partly drawn) [Compound 8], the IC50 in the data set with MDA-MB-231 (setting [3]) stood at 1.55 ± 0.21 µM; in data set [1], 21.8 ± 4.74 µM; with MCF7 (setting [4]) it was 1.29 ± 0.09 µM; with MCF7/TAMR (setting [5]), 1.78 ± 0.13 µM.
Consider `CC1(C)CC[C@]2(C(=O)O)CC[C@]3(C)C(=CCC4[C@@]5(C)CCC(O[C@@H]6OC[C@H](O)[C@H](O)[C@H]6O)C(C)(C)C5CC[C@]43C)C2C1` (stereo partly drawn) [Compound 6, 3-O-α-L-arabinopyranosyl olean-12-en-28-oic acid], for which the IC50 amounted to 0.84 ± 0.17 µM in the data set with MDA-MB-231 (setting [3]), 4.08 ± 1.09 µM in data set [1], 1.11 ± 0.04 µM in the data set with MCF7 (setting [4]) and 1.39 ± 0.18 µM with MCF7/TAMR (setting [5]). Besides, the “PTP1B inhibition mode (Lineweaver-Burk plot)” value in data set [1] is “noncompetitive”. Further, in the data set with MCF-7 cells (10 μM, 12 h), the “percentage of apoptotic cancer cells (higher right field, Annexin FITC/PI)” value was found to be 89.47%. Further, the viability at 10 µM with MCF-7 cells (Homo sapiens, MCF7, 12 h, read-out: percentage of cells in lower left field (viable; low Annexin V and PI staining)) is 0.75%.
For `CC(CO)c1cc2c(c(O)c1O)[C@@]1(C)CCCC(C)(C)C1CC2=O` (stereo partly drawn) [Compound 2, cyrtophyllones B], the IC50 with MDA-MB-231 (setting [3]) was 4.04 ± 0.8 µM; in data set [1], 6.77 ± 1.28 µM; in the data set with MCF7 (setting [4]), 7.91 ± 0.39 µM; in the data set on MCF7/TAMR (setting [5]), 13.4 ± 1.26 µM. Further, the “cytotoxic activities against breast cancer lines, IC50 values ranging over the cell lines” value in data set [2] is reported as 0.84 ± 0.17 to 13.42 ± 1.26.

(Values after paper PMC6273847, “Protein Tyrosine Phosphatase 1B Inhibitors from the Stems of Akebia quinata” (Molecules, 2016).)
